Results on 2 compounds are retold here after US6774143B1, “Method for treating cells resistant to antineoplastic agents” (Novartis AG, priority 2003, dated 2004).

For series [1], the system named is MCF-7/ADR cells (multidrug resistant). Description: Antiproliferative assay, methylene blue staining. In kind it is cell-based, human. From the text:
The following cell lines are obtained from the American Type Culture Collection (ATCC, Rockville, Md., USA): human colon carcinomas HCT-15 (CCL 225) and HCT-116 (CCL 247), human lung adenocarcinoma A549 (CCL 185), human large cell carcinoma NCI-H460 (HTB 177), estrogen-independent breast carcinoma MDA-MB-231 ([…]), prostate cancer cell line Du 145 (HTB 81). The human KB-31 (drug-sensitive) and KB-8511 (multidrug-resistant, Pgp170 overexpressing) epidermoid carcinoma cells are obtained from Dr. R. M. Baker, Roswell Park Memorial Institute (Buffalo, N.Y., USA) and have been previously described (Akiyam S, et al. Somatic Cell Molec Genetics 1985;11:117-126 and Fojo A, et al., Cancer Res. 1997;45:3002-3007). The human metastatic prostate carcinoma PC-3M is obtained from Dr. I. J. Fidler (MD Anderson Cancer Center, Houston, Tex., USA). […]
For the antiproliferative assays, cells are seeded at 1.5×10^3/well into 96-well microtiter plates and incubated overnight. […] After washing, the dye is eluted with 3% v/v HCl and the optical density measured at 665 nm with a SpectraMax 340 (Bucherer, Basel, Switzerland). IC50 values are determined by a computerized system (SoftPro, Bucherer, Basel, Switzerland) using the formula (OD test—OD start)/(OD control—OD start)×100. […]

Series [2] in a line: Toxicity in non-tumor bearing naive nude mice (body weight). The format is in vivo. The settings on record: for body weight change: naive mice. The procedure:
To assess toxicity of discodernolide on non-tumor bearing animals, four groups of 8 naive nude mice are dosed with the compound, iv, once (5 mg/kg, 7.5 mg/kg, 10 mg/kg, or 15 mg/kg). The control group is dosed with the vehicle alone (16.7% Cremophor EL, 8.3% ethanol and 75% D5W). Body weights are recorded once weekly.

The subject of series [3] is panel of human tumor lines (drug-susceptible cell lines). Description: Antiproliferative assay, methylene blue staining. In kind it is cell-based. The settings on record: 120 h, 5 days incubation. From the text: The following cell lines are obtained from the American Type Culture Collection (ATCC, Rockville, Md., USA): human colon carcinomas HCT-15 (CCL 225) and HCT-116 (CCL 247), human lung adenocarcinoma A549 (CCL 185), human large cell carcinoma NCI-H460 (HTB 177), estrogen-independent breast carcinoma MDA-MB-231 ([…]), prostate cancer cell line Du 145 (HTB 81). The human KB-31 (drug-sensitive) and KB-8511 (multidrug-resistant, Pgp170 overexpressing) epidermoid carcinoma cells are obtained from Dr. R. M. Baker, Roswell Park Memorial Institute (Buffalo, N.Y., USA) and have been previously described (Akiyam S, et al. Somatic Cell Molec Genetics 1985;11:117-126 and Fojo A, et al., Cancer Res. […];45:3002-3007). The human metastatic prostate carcinoma PC-3M is obtained from Dr. I. J. Fidler (MD Anderson Cancer Center, Houston, Tex., USA). The estrogen-dependent human breast carcinoma cell line MCF-7/ADR (multidrug resistant) is a subline of the MCF-7 cell line (ATCC HTB 22) and is obtained from Dr. D. Fabbro (Novartis Pharma AG, Basel, Switzerland) and has been previously described (Blobe G C, et al. J. Biol. Chem. 1993; 268:658-664).
For the antiproliferative assays, cells are seeded at 1.5×10^3/well into 96-well microtiter plates and incubated overnight. Compounds are added in serial dilutions on day 1. The plates are than incubated for additional 5 days. This allowed the control cultures to undergo at least 3 cell divisions. After incubation the cells are fixed with 3.3% v/v glutaraldehyde, washed with water and stained with 0.05% w/v methylene blue. After washing, the dye is eluted with 3% v/v HCl and the optical density measured at 665 nm with a SpectraMax 340 (Bucherer, Basel, Switzerland). IC50 values are determined by a computerized system (SoftPro, Bucherer, Basel, Switzerland) using the formula (OD test—OD start)/(OD control—OD start)×100. IC50 is defined as the drug concentration which leads to 50% of cells per well compared to control cultures (100%) at the end of the incubation period.

In the next series the test system is 1A9PTX22 cell line. The settings on record: cited from earlier work.

A word on the IC50: it is the concentration that inhibits the measured activity by half. Consider `C=C/C=C\[C@H](C)[C@H](OC(N)=O)[C@@H](C)[C@H](O)[C@@H](C)C/C(C)=C\[C@H](C)[C@@H](O)[C@@H](C)/C=C\[C@@H](O)C[C@@H]1OC(=O)[C@H](C)[C@@H](O)[C@H]1C` [discodermolide, (+)-Discodermolide], for which the “potency compared with paclitaxel” value in series [1] is reported as “more potent than paclitaxel”. Moreover, the body weight lost result in series [2] (naive athymic nude mice, single injections, one week after dosing) is reported as “no more than 4%”. Moreover, the body weight change entry in series [2] (single iv 5 mg/kg, one week after dosing) is given as “+8.7%”; in series [2] (single iv 5 mg/kg, three weeks after dosing), “+9.4%”; in series [2] (single iv 5 mg/kg, two weeks after dosing) it was “+9.4%”; in series [2] (single iv 7.5 mg/kg, one week after dosing) it was “+1.2%”; in series [2] (single iv 7.5 mg/kg, three weeks after dosing), “+7.7%”; in series [2] (single iv 7.5 mg/kg, two weeks after dosing), “+3.2%”. Further, the body weight change is −1.2% in series [2] (single iv 10 mg/kg, one week after dosing); “+5.6%” in series [2] (single iv 10 mg/kg, three weeks after dosing); “+1.2%” in series [2] (single iv 10 mg/kg, two weeks after dosing); −4.1% in series [2] (single iv 15 mg/kg, one week after dosing); “+5.90%” in series [2] (single iv 15 mg/kg, three weeks after dosing); −0.4% in series [2] (single iv 15 mg/kg, two weeks after dosing). The IC50 in series [3] lay in the range of 2 to 24 nM.

`CC(=O)O[C@H]1C(=O)[C@@]2(C)[C@H]([C@H](OC(=O)c3ccccc3)[C@]3(O)C[C@H](OC(=O)[C@H](O)[C@@H](NC(=O)c4ccccc4)c4ccccc4)C(C)=C1C3(C)C)[C@]1(OC(C)=O)CO[C@@H]1C[C@@H]2O` [paclitaxel, reference compound]: the “fold less sensitive than 1A9 (reported)” value in the series on 1A9PTX22 cell line (PTX-22 subline) is on record as 20-30 fold. In addition, the “fold resistance of 1A9PTX22 versus parental 1A9” value in the series with 1A9PTX22 cell line (in vitro, Giannakakou et al. 1997) is 24 fold.
